SMILES strings stand for the structures. Where two headings read alike, the source gives them in different places.

The series can be described thus: Maximum (saturation) solubility in 10 mM citric buffer, HPLC assay. Conditions: for solubility at 48 h: 10 mM citric buffer, thermodynamic from solid. The series is classed as physicochemical. On the procedure: In order to compare the maximum solubility of pharmaceutically acceptable salts of rotigotine, e.g. rotigotine.H3PO4, with rotigotine.HCl, the solubility studies of rotigotine.salts were carried out as described by Nugroho et al. (Pharm. Res. 21 (2004), 844-855), which is incorporated herein by reference, who determined the solubility of rotigotine.HCl. Briefly, rotigotine.salt was solubilized in 10 mM citric buffer at pH 4, 5 and 6 with and without the presence of NaCl (at room temperature). Subsequent adjustment of pH in each test tube was performed by alternating adding small quantities of 1M NaOH under continuous shaking and subsequent pH measurements, until the pH of each solution had stabilized at the original buffer value. Each solution was shaken for an additional 48 hours, after which each solution was centrifuged and filtered. The concentration in each solution was determined by HPLC. Room temperature or ambient as used in the present application is to be understood to apply to a range from 18° C. to 25° C., preferred is about 20° C.
The maximum solubilities of rotigotine hydrochloride (abbreviated as Ro.HCl) and rotigotine hydrophosphate (abbreviated as rotigotine.H3PO4 or Ro.H3PO4) have been investigated as a function of pH in a number of solvents (table.1). Ro.H3PO4 was dissolved in the indicated buffer upon which the pH of the formed solution was adjusted to the target value by addition of sodium hydroxide solution. […] The drug was assayed by HPLC analysis in the filtered solution.
• Column: Merck Superspher 60 RP select B, length: 7.5 cm, column internal diameter: 4 mm, particle size: 5 μm • Mobile phase: 60% (v/v) water, 40% (v/v) acetonitrile 0.05% (v/v) methanesulfonic acid • Flow: 1.0 ml/min • Injection volume: collected fractions: 50 μl, diluted donor solutions: 4 μl • Column temperature: ambient • Detection: fluorescence, λex=276 nm, λem=302 nm

Take `CCCN(CCc1cccs1)[C@H]1CCc2c(O)cccc2C1.O=P(O)(O)O` [rotigotine.H3PO4, rotigotine dihydrogen phosphate]: the solubility at 48 h is 34 to 83 mM (aqueous buffer, pH range of about 4 to 5.5, read-out: water solubility); 80.1 mM (pH 4, aqueous buffer, pH 4, 68 mM NaCl, n = 2-3, read-out: Solubility); 83.5 mM (pH 4, aqueous buffer, pH 4, no NaCl, n = 2-3, read-out: Solubility); 43 mM (pH 5, aqueous buffer, pH 5, 68 mM NaCl, n = 2-3, read-out: Solubility); 41.9 mM (pH 5, aqueous buffer, pH 5, no NaCl, n = 2-3, read-out: Solubility); 14.4 mM (pH 6, aqueous buffer, pH 6, 68 mM NaCl, n = 2-3, read-out: Solubility). Moreover, the solubility at 48 h (pH 6, aqueous buffer, pH 6, no NaCl, n = 2-3, read-out: Solubility) was 15.7 mM. Moreover, the “solubility fold higher compared to rotigotine-HCl” value is 12 fold (pH 4), 7 fold (pH 5) and 2 fold (pH 6). For the same compound, under “selected pH values 4, 5, 6, 68 mM NaCl, 2-way ANOVA p>0.05”, the “effect of addition of NaCl on solubility” value is on record as “did not affect significantly”.

In general, solubility refers to the concentration that dissolves in the medium under given conditions.

Values taken from patent publication US9034914B2, “Pharmaceutical composition comprising rotigotine salts (acid or Na), especially for iontophoresis” (UCB Pharma GmbH, priority 2009, dated 2015).
